ChEMBL document CHEMBL1909046, “DrugMatrix in vitro pharmacology data”

Assays:
[1] = target: T1, Neutrophil elastase (Homo sapiens, UniProt P08246); format: tissue-based;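 note: inhibition of neutrophil elastase enzyme activity, measured with a p-nitroanilide-linked peptide substrate; in other assays of this panel Not Active means under 50% inhibition at 10 µM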
T1 sequence (P08246 whole entry): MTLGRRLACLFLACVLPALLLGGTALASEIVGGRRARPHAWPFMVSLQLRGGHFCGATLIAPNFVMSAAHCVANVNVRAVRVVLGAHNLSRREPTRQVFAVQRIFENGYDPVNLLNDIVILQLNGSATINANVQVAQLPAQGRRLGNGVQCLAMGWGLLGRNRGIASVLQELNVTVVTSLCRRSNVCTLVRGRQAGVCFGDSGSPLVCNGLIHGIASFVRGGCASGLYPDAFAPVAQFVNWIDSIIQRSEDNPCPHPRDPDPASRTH

[2] = target: T2, Leukotriene C4 synthase (Cavia porcellus, UniProt A6XA80); format: tissue-based, Lung;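 note: enzyme inhibition assay of leukotriene C4 synthase, using LTA4 as the substrate; in other assays of this panel Not Active means under 50% inhibition at 10 µM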
T2 sequence (A6XA80 whole entry): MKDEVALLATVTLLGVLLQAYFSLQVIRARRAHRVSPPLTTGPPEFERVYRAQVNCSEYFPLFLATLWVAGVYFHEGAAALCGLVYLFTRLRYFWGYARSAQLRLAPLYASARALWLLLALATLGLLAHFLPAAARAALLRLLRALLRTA

[3] = target: Glycine receptor (Rattus norvegicus, UniProt P22771+P24524+P07727+P20781); format: cell membranes, Wistar, Spinal cord, Membrane; note: in other assays of this panel Not Active means under 50% inhibition at 10 µM
[4] = target: T3, Alpha-1B adrenergic receptor (Rattus norvegicus, UniProt P15823); assay: DRUGMATRIX: Alpha-1B adrenergic receptor radioligand binding (ligand: prazosin); format: cell membranes, Wistar, Liver, Membrane; settings: Not Active = under 50% inhibition at 10 µM
T3 sequence (P15823 whole entry): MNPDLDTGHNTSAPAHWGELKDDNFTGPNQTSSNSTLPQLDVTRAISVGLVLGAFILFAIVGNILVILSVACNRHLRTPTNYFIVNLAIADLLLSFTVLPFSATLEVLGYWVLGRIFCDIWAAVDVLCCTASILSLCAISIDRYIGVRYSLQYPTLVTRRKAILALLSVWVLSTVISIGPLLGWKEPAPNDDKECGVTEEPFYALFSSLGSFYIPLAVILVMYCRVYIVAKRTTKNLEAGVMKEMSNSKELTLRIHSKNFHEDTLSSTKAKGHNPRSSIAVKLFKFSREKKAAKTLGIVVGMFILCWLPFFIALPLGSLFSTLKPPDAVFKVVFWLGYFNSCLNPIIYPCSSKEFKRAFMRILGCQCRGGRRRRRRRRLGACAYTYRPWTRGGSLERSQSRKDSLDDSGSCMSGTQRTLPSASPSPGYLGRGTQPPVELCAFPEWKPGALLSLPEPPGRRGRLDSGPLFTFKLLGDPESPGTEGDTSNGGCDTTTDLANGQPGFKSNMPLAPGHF

[5] = target: T4, Cathepsin G (Homo sapiens, UniProt P08311); format: tissue-based; settings: neutrophil;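 note: inhibition of Cathepsin G enzyme activity, tested on an AMC-conjugated peptide substrate; in other assays of this panel Not Active means under 50% inhibition at 10 µM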
T4 sequence (P08311 whole entry): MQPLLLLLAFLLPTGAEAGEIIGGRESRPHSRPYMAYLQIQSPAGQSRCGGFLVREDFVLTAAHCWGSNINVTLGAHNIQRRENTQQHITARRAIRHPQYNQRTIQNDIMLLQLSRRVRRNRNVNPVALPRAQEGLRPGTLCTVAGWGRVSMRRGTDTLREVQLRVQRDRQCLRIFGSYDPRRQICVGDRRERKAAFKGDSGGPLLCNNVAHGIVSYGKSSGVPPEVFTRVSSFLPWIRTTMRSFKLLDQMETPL

[6] = target: T5, Interstitial collagenase (Homo sapiens, UniProt P03956); assay: biochemical; format: tissue-based, Rheumatoid synovial fibroblasts
T5 sequence (P03956 whole entry): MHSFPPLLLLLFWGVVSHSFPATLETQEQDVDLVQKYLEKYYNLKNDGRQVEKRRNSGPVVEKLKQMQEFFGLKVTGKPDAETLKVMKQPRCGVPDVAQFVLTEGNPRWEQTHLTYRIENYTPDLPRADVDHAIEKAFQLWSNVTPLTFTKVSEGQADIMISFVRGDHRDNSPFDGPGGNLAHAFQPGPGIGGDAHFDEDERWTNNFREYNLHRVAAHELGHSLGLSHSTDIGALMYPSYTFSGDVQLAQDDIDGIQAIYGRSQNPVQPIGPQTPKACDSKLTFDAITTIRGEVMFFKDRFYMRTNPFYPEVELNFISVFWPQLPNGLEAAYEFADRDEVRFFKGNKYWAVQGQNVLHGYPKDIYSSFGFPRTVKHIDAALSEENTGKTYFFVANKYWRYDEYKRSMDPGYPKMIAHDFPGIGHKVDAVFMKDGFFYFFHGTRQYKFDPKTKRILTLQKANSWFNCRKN

[7] = target: T6, C-X-C chemokine receptor type 1 (Homo sapiens, UniProt P25024); note: in other assays of this panel Not Active means under 50% inhibition at 10 µM
T6 sequence (P25024 whole entry): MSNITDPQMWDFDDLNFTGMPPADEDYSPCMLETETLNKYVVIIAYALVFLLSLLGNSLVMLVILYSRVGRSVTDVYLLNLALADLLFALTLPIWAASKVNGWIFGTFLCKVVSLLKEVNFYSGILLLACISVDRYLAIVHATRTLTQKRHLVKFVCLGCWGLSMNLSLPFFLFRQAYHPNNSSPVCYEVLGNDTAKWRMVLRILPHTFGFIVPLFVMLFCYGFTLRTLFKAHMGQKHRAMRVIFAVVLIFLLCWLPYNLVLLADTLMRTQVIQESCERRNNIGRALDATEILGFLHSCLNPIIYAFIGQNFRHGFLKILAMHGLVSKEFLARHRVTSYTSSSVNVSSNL

[8] = target: Prostaglandin G/H synthase 1 (Homo sapiens, UniProt P23219); assay: biochemical; format: tissue-based, Platelet; settings: platelet
Chain of Prostaglandin G/H synthase 1 (P23219 whole entry): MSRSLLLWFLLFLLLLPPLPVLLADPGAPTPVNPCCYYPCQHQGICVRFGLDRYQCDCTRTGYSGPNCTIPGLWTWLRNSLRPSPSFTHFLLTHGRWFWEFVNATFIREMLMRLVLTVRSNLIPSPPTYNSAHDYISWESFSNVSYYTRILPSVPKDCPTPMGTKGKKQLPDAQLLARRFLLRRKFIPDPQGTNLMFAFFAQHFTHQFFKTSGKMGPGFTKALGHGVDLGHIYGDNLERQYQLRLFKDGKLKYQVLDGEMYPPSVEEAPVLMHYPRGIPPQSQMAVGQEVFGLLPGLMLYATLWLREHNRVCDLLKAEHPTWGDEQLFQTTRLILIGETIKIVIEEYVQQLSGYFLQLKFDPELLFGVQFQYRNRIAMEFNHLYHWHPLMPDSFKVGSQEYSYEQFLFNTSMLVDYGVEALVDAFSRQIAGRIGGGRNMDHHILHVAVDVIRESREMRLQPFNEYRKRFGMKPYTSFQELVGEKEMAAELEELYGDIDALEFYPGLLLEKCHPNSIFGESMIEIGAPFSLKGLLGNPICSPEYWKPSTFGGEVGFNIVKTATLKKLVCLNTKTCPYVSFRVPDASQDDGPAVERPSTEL

[9] = target: T7, Thromboxane-A synthase (Homo sapiens, UniProt P24557); assay: biochemical; format: tissue-based, Platelet; settings: platelet
T7 sequence (P24557 whole entry): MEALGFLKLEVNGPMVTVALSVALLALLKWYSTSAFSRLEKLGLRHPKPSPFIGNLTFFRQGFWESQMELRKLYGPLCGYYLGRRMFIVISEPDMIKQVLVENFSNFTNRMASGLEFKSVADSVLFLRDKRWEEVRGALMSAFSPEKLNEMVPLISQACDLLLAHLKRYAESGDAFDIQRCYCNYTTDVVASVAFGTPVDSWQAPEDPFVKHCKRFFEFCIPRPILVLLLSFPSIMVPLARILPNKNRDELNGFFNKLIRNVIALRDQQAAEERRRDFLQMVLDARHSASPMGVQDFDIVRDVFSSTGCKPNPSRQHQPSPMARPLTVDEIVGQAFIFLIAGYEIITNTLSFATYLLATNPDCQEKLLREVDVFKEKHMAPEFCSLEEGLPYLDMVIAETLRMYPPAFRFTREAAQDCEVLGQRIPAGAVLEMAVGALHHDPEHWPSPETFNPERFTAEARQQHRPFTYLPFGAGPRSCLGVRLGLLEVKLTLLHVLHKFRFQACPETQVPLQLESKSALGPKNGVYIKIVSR

Cc1nccn1CC1CCc2c(c3ccccc3n2C)C1=O (configuration not stated) [ONDANSETRON]
Not Active: IC50 [1] | IC50 [2] | IC50 [3] | IC50 [4] | IC50 [5] | IC50 [6] | IC50 [7] | IC50 [8] | IC50 [9]

CCn1cc(C(=O)O)c(=O)c2cc(F)c(N3CCN(C)CC3)cc21 [PEFLOXACIN]
Not Active: IC50 [1] | IC50 [2] | IC50 [3] | IC50 [4] | IC50 [5] | IC50 [6] | IC50 [7] | IC50 [8] | IC50 [9]

CCCCOc1ccc(OCCCN2CCOCC2)cc1 [PRAMOXINE]
Not Active: IC50 [1] | IC50 [2] | IC50 [3] | IC50 [4] | IC50 [5] | IC50 [6] | IC50 [7] | IC50 [8] | IC50 [9]

O=C(C1CCCCC1)N1CC(=O)N2CCc3ccccc3C2C1 (configuration not stated) [PRAZIQUANTEL]
Not Active: IC50 [1] | IC50 [2] | IC50 [3] | IC50 [4] | IC50 [5] | IC50 [6] | IC50 [7] | IC50 [8] | IC50 [9]

CCN(CC)CCOC(=O)c1ccc(N)cc1 [PROCAINE]
Not Active: IC50 [1] | IC50 [2] | IC50 [3] | IC50 [4] | IC50 [5] | IC50 [6] | IC50 [7] | IC50 [8] | IC50 [9]

CCCN(CCC)C(=O)C(CCC(=O)O)NC(=O)c1ccccc1 (configuration not stated) [PROGLUMIDE]
Not Active: IC50 [1] | IC50 [2] | IC50 [3] | IC50 [4] | IC50 [5] | IC50 [6] | IC50 [7] | IC50 [8] | IC50 [9]

NC(=O)c1cnccn1 [PYRAZINAMIDE]
Not Active: IC50 [1] | IC50 [2] | IC50 [3] | IC50 [4] | IC50 [5] | IC50 [6] | IC50 [7] | IC50 [8] | IC50 [9]

OC(CCN1CCCCC1)(c1ccccc1)C1CCCCC1 (configuration not stated) [TRIHEXYPHENIDYL]
Not Active: IC50 [1] | IC50 [2] | IC50 [3] | IC50 [4] | IC50 [5] | IC50 [6] | IC50 [7] | IC50 [8] | IC50 [9]

Cc1cc2cc3c(C)cc(=O)oc3c(C)c2o1 [TRIOXSALEN]
Not Active: IC50 [1] | IC50 [2] | IC50 [3] | IC50 [4] | IC50 [5] | IC50 [6] | IC50 [7] | IC50 [8] | IC50 [9]

CCCC(CCC)C(=O)O [VALPROIC ACID]
Not Active: IC50 [1] | IC50 [2] | IC50 [3] | IC50 [4] | IC50 [5] | IC50 [6] | IC50 [7] | IC50 [8] | IC50 [9]

CCC1=C[C@@H]2CN(C1)Cc1c([nH]c3ccccc13)[C@@](C(=O)OC)(c1cc3c(cc1OC)N(C)[C@H]1[C@@](O)(C(=O)OC)[C@H](OC(C)=O)[C@]4(CC)C=CCN5CC[C@]31[C@@H]54)C2 [VINORELBINE]
Not Active: IC50 [1] | IC50 [2] | IC50 [3] | IC50 [4] | IC50 [5] | IC50 [6] | IC50 [7] | IC50 [8] | IC50 [9]

CADMIUM DICHLORIDE
Not Active: IC50 [1] | Ki [1] | IC50 [2] | Ki [2] | IC50 [3] | Ki [3] | IC50 [4] | Ki [4] | IC50 [5] | Ki [5] | IC50 [6] | Ki [6] | IC50 [7] | Ki [7] | IC50 [8] | Ki [8] | IC50 [9] | Ki [9]
